Each structure is given as a SMILES string. ≈ marks a conversion by molar mass, not a printed value.

Consider eight compounds from patent publication US7390806B2, “Antibiotics containing borinic acid complexes and methods of use” (Anacor Pharmaceuticals, Inc., priority 2002, dated 2008).

The test system of experiment [1] is Aspergillus fumigatus ATCC 204305. In words: Antifungal in vitro MIC, Aspergillus fumigatus. The settings on record: for MIC Aspergillus fumigatus ATCC 204305: percent inhibition >= 80%. Format: cell-based.
Experiment [2] concerns Candida albicans ATCC 90028. As to the kind of experiment: Antifungal in vitro MIC, Candida albicans. The settings on record: for MIC Candida albicans ATCC 90028: percent inhibition >= 80%. Format: cell-based.
Experiment [3] concerns Candida parapsilosis ATCC 22019. In words: Antifungal in vitro MIC, Candida parapsilosis. Format: cell-based. Particulars: for MIC Candida parapsilosis ATCC 22019: percent inhibition >= 80%.
Experiment [4] has as its system Trichophyton mentagrophytes ATCC 10270. As to the kind of experiment: Antifungal in vitro MIC, Trichophyton mentagrophytes. It counts as cell-based. The settings on record: for MIC Trichophyton mentagrophytes ATCC 10270: percent inhibition >= 80%.
Experiment [5] relates to Microsporum canis ATCC 10214. As to the kind of experiment: Antifungal in vitro MIC, Microsporum canis. Format: cell-based. The settings on record: for MIC Microsporum canis ATCC 10214: percent inhibition >= 80%.
The test system of experiment [6] is Candida glabrata ATCC 15126. In words: Antifungal in vitro MIC, Candida glabrata. It counts as cell-based. The settings on record: for MIC Candida glabrata ATCC 15126: percent inhibition >= 80%.
In experiment [7] the test system is S. aureus ATCC 29213. As to the kind of experiment: MIC determination, S. aureus ATCC 29213. Format: cell-based, Staphylococcus aureus. Particulars: Table 1.
Experiment [8] concerns E. faecalis ATCC 29212. As to the kind of experiment: MIC determination, E. faecalis ATCC 29212. Format: cell-based, Enterococcus faecalis. Particulars: Table 1.
Experiment [9] relates to S. epidermidis ATCC 12228. As to the kind of experiment: MIC determination, S. epidermidis ATCC 12228. It counts as cell-based, Staphylococcus epidermidis. The settings on record: Table 1.
Experiment [10] deals with M. catarrhalis ATCC 25238. In words: MIC determination, M. catarrhalis ATCC 25238. Format: cell-based. The settings on record: Table 1.
Experiment [11] concerns E. faecium CT-26. In words: MIC determination, E. faecium CT-26. It counts as cell-based, Enterococcus faecium. The settings on record: Table 1.
For experiment [12], the system named is M. tuberculosis H37Rv. As to the kind of experiment: Anti-mycobacterium in vitro activity, H37Rv. Format: cell-based, Mycobacterium tuberculosis. Particulars: Sensitive strain.

In the case of `C[C@@H]1[C@H](O)[C@@H](C)/C=C/C=C/C=C/C=C/C=C/C=C/C=C/[C@H](O[C@@H]2O[C@H](C)[C@@H](O)[C@H](N)[C@@H]2O)C[C@@H]2O[C@](O)(C[C@@H](O)C[C@@H](O)[C@H](O)CC[C@@H](O)C[C@@H](O)CC(=O)O[C@H]1C)C[C@H](O)[C@H]2C(=O)O` [Amphotericin B, reference compound], the “MIC Aspergillus fumigatus ATCC 204305” value in experiment [1] came to 1 µg/mL (≈ 1.08 µM). In addition, the “MIC Candida albicans ATCC 90028” value in experiment [2] turned out to be 1 µg/mL (≈ 1.08 µM). For the same compound, the “MIC Candida parapsilosis ATCC 22019” value in experiment [3] was 0.75 µg/mL (≈ 0.812 µM). Besides, the “MIC Trichophyton mentagrophytes ATCC 10270” value in experiment [4] was 1 µg/mL (≈ 1.08 µM). Also, the “MIC Microsporum canis ATCC 10214” value in experiment [5] worked out at 0.5 µg/mL (≈ 0.541 µM). For the same compound, the “MIC Candida glabrata ATCC 15126” value in experiment [6] turned out to be 0.75 µg/mL (≈ 0.812 µM).
As a reminder, the MIC is the lowest concentration that inhibits growth of the organism. On to `Oc1cccc2cccnc12` [Compound 53, 8-hydroxyquinoline], for which the MIC in [1] (Aspergillus fumigatus, ATCC204305, read-out: MIC Aspergillus fumigatus ATCC 204305) is > 32 µg/mL; in [2] (Candida albicans, ATCC90028, read-out: MIC Candida albicans ATCC 90028), 1 µg/mL (≈ 6.89 µM); in [3] (Lodderomyces parapsilosis, ATCC22019, read-out: MIC Candida parapsilosis ATCC 22019), 32 µg/mL (≈ 220 µM); in [4] (Trichophyton mentagrophytes, ATCC10270, read-out: MIC Trichophyton mentagrophytes ATCC 10270), > 32 µg/mL; in experiment [5] (Microsporum canis, ATCC10214, read-out: MIC Microsporum canis ATCC 10214) it was 16 µg/mL (≈ 110 µM); in [6] (Nakaseomyces glabratus, ATCC15126, read-out: MIC Candida glabrata ATCC 15126) it was > 32 µg/mL. For the same compound, in experiment [7], the “MIC S. aureus ATCC 29213” value is recorded as 2 micrograms per ml. Further, the “MIC E. faecalis ATCC 29212” value in experiment [8] was found to be 64 micrograms per ml. Further, in [9], the “MIC S. epidermidis ATCC 12228” value was determined as 2 micrograms per ml. Further, the “MIC M. catarrhalis ATCC 25238” value in [10] came out at 2 micrograms per ml. Also, in [11], the “MIC E. faecium CT-26” value came to 4 micrograms per ml. Moreover, in experiment [12], the “M. tuberculosis MIC H37Rv” value is 0.775 µg/mL.
Regarding `Clc1ccc(B(OCc2cnc[nH]2)c2ccc(Cl)cc2)cc1` [Compound 126, Bis(4-Chlorophenyl)borinic acid 4-(hydroxymethyl)imidazole ester], the “MIC Aspergillus fumigatus ATCC 204305” value in experiment [1] is >32 µg/mL. Further, the “MIC Candida albicans ATCC 90028” value in experiment [2] is 1 µg/mL (≈ 3.02 µM). In experiment [3], the “MIC Candida parapsilosis ATCC 22019” value worked out at 32 µg/mL (≈ 96.7 µM). Also, in [4], the “MIC Trichophyton mentagrophytes ATCC 10270” value is >32 µg/mL. In [5], the “MIC Microsporum canis ATCC 10214” value came out at 16 µg/mL (≈ 48.3 µM). In addition, the “MIC Candida glabrata ATCC 15126” value in experiment [6] was >32 µg/mL.
Take `Cc1ccc(B(OCc2cn(Cc3ccccc3)cn2)c2ccc(C)c(Cl)c2)cc1Cl` [Compound 127, Bis(3-Chloro-4-methylphenyl)borinic acid 1-benzyl-4-(hydroxymethyl)-imidazole ester]: the “MIC Aspergillus fumigatus ATCC 204305” value in experiment [1] is >32 µg/mL. For the same compound, the “MIC Candida albicans ATCC 90028” value in experiment [2] stood at 1 µg/mL (≈ 2.23 µM). For the same compound, the “MIC Candida parapsilosis ATCC 22019” value in experiment [3] is 16 µg/mL (≈ 35.6 µM). For the same compound, the “MIC Trichophyton mentagrophytes ATCC 10270” value in [4] was determined as 32 µg/mL (≈ 71.2 µM). Moreover, the “MIC Microsporum canis ATCC 10214” value in experiment [5] worked out at 16 µg/mL (≈ 35.6 µM). Moreover, in experiment [6], the “MIC Candida glabrata ATCC 15126” value is >32 µg/mL.
For `Cc1ccc(B(OCc2nccn2C)c2ccc(C)c(Cl)c2)cc1Cl` [Compound 128, Bis(3-Chloro-4-methylphenyl)borinic acid 1-methyl-2-(hydroxymethyl)-imidazole ester], the “MIC Aspergillus fumigatus ATCC 204305” value in experiment [1] is >32 µg/mL. Further, the “MIC Candida albicans ATCC 90028” value in experiment [2] stood at 1 µg/mL (≈ 2.68 µM). Moreover, the “MIC Candida parapsilosis ATCC 22019” value in experiment [3] is 16 µg/mL (≈ 42.9 µM). The “MIC Trichophyton mentagrophytes ATCC 10270” value in experiment [4] came to 16 µg/mL (≈ 42.9 µM). Further, in [5], the “MIC Microsporum canis ATCC 10214” value turned out to be 12 µg/mL (≈ 32.2 µM). The “MIC Candida glabrata ATCC 15126” value in experiment [6] turned out to be 32 µg/mL (≈ 85.8 µM).
`CCn1ccnc1COB(c1ccc(C)c(Cl)c1)c1ccc(C)c(Cl)c1` [Compound 129, Bis(3-Chloro-4-methylphenyl)borinic acid 1-ethyl-2-(hydroxymethyl)-imidazole ester]: in experiment [1], the “MIC Aspergillus fumigatus ATCC 204305” value was >32 µg/mL. In addition, in experiment [2], the “MIC Candida albicans ATCC 90028” value is 1 µg/mL (≈ 2.58 µM). In addition, in [3], the “MIC Candida parapsilosis ATCC 22019” value turned out to be 32 µg/mL (≈ 82.7 µM). Further, the “MIC Trichophyton mentagrophytes ATCC 10270” value in [4] was found to be 32 µg/mL (≈ 82.7 µM). Besides, the “MIC Microsporum canis ATCC 10214” value in experiment [5] amounted to 16 µg/mL (≈ 41.3 µM). Moreover, the “MIC Candida glabrata ATCC 15126” value in experiment [6] was >32 µg/mL.
For the compound `Cc1ccc(B(OCc2cn(C)cn2)c2ccc(C)c(Cl)c2)cc1Cl` [Compound 130, Bis(3-Chloro-4-methylphenyl)borinic acid 1-methyl-4-(hydroxymethyl)-imidazole ester], in experiment [1], the “MIC Aspergillus fumigatus ATCC 204305” value worked out at 0.5 µg/mL (≈ 1.34 µM). Besides, the “MIC Candida albicans ATCC 90028” value in experiment [2] was 1 µg/mL (≈ 2.68 µM). In addition, the “MIC Candida parapsilosis ATCC 22019” value in [3] was 0.5 µg/mL (≈ 1.34 µM). Moreover, in [4], the “MIC Trichophyton mentagrophytes ATCC 10270” value worked out at 0.5 µg/mL (≈ 1.34 µM). Also, the “MIC Microsporum canis ATCC 10214” value in experiment [5] was 0.5 µg/mL (≈ 1.34 µM). The “MIC Candida glabrata ATCC 15126” value in [6] came to 0.5 µg/mL (≈ 1.34 µM).
Turning to `Cc1ccc(B(OCCc2ccccn2)c2ccc(C)c(Cl)c2)cc1Cl` [Compound 131, Bis(3-Chloro-4-methylphenyl)borinic acid 2-pyridylethanol], the “MIC Aspergillus fumigatus ATCC 204305” value in [1] was >32 µg/mL. In addition, in experiment [2], the “MIC Candida albicans ATCC 90028” value was 2 µg/mL (≈ 5.21 µM). Further, in experiment [3], the “MIC Candida parapsilosis ATCC 22019” value was >32 µg/mL. Further, the “MIC Trichophyton mentagrophytes ATCC 10270” value in experiment [4] amounted to 32 µg/mL (≈ 83.3 µM). Also, the “MIC Microsporum canis ATCC 10214” value in [5] was 32 µg/mL (≈ 83.3 µM). In [6], the “MIC Candida glabrata ATCC 15126” value was >32 µg/mL.
